Reference: paper PMC2248166, “Quantitative peptide binding motifs for 19 human and mouse MHC class I molecules derived using positional scanning combinatorial peptide libraries” (Immunome Research, 2008)

Tests used:
Format in all cases: binding
HLA A*3001 = HLA A*3001 (Homo sapiens, UniProt P04439, D140H/D185E/E176W/F33S/G80R/H175R/K168Q/R138E/R41S); experiment: biochemical
H-2 D^d = H-2 D^d (Mus musculus, UniProt P01900)
H-2 K^k = H-2 K^k (Mus musculus, UniProt P04223)
HLA B*5801 = HLA B*5801 (Homo sapiens, UniProt P01889, A329T/C349S/D201E/D98Y/E176V/E187L/E204Q/E69T/G107R/I218V/I90N/K202T/L105A/L119I/N104I/N87E/Q89R/Q94S/R106L/R155S/R180L/R86G/S101N/S121R/S35A/S48A/T118I/V127L/V306I/V36M/Y140S/Y91M)
HLA B*1503 = HLA B*1503 (Homo sapiens, UniProt P01889, A329T/A93T/A95T/C349S/D201E/D98Y/E187L/E204Q/K202T/N87E/Q94N/R155S/R180L/S121R/S35A/V306I/V36M/Y140S/Y91S); experiment: biochemical
HLA B*5301 = HLA B*5301 (Homo sapiens, UniProt P01889, A329T/A93T/A95T/C349S/D201E/D98Y/E176V/E187L/E204Q/E69T/G107R/I218V/K202T/L105A/L119I/N104I/Q94N/R106L/R155S/R180L/S101N/S121R/S35A/S48A/T118I/V127L/V306I/V36M/Y140S/Y91F)
H-2 D^b = H-2 D^b (Mus musculus, UniProt P01899)
HLA B*5401 = HLA B*5401 (Homo sapiens, UniProt P01889, A329T/C349S/D138N/D201E/E176V/E187T/E204Q/E69G/I76V/K202T/L119W/R155S/R180L/S121T/S35A/S48A/V127L/V306I/V36M/Y140L)
H-2 K^d = H-2 K^d (Mus musculus, UniProt P01902)
HLA B*0801 = HLA B*0801 (Homo sapiens, UniProt P01889, A93T/A95T/D138N/E176V/E187T/K202T/Q94N/R180D/S35A/V36M/Y33D/Y91F); experiment: biochemical
HLA A*3201 = HLA A*3201 (Homo sapiens, UniProt P04439, A270S/D101S/D185E/E176V/E277Q/F133L/G103R/G107R/G231S/H175R/I121M/I218V/I322F/K168Q/L105A/L300P/L318F/M331R/P208A/P217A/Q94H/R106L/R138Q/S129P/T104I/T323A/T345S/V100E/V321M/V358M); experiment: biochemical
HLA B*5101 = HLA B*5101 (Homo sapiens, UniProt P01889, A329T/A93T/A95T/C349S/D138N/D201E/D98Y/E187L/E204Q/E69T/G107R/I218V/K202T/L105A/L119W/N104I/Q94N/R106L/R155S/R180L/S101N/S121T/S35A/S48A/V306I/V36M/Y195H/Y91F)
HLA B*3501 = HLA B*3501 (Homo sapiens, UniProt P01889, A329T/A93T/A95T/C349S/D201E/D98Y/E176V/E187L/E204Q/E69T/I218V/K202T/L119I/Q94N/R155S/R180L/S121R/S35A/S48A/T118I/V127L/V306I/V36M/Y140S/Y91F)
HLA A*6802 = HLA A*6802 (Homo sapiens, UniProt P04439, A269V/D140Y/D185E/E176V/E277Q/E87N/F33Y/G231S/I121R/I166T/I218V/L180W/L300P/L318F/N151K/P208A/P217A/Q86R/R138H/R169H/S129P/T345S/V36M)
HLA B*1501 = HLA B*1501 (Homo sapiens, UniProt P01889, A329T/A93T/A95T/C349S/D201E/D98Y/E187L/E204Q/E69M/E70A/K202T/N87E/Q94N/R155S/R180W/S121R/S35A/S48A/V306I/V36M/Y140S/Y91S); experiment: biochemical
HLA B*5802 = HLA B*5802 (Homo sapiens, UniProt P01889, A329T/C349S/D201E/D98Y/E176V/E187L/E204Q/E69T/G107R/I218V/I90N/K202T/L105A/N104I/N87E/Q89R/Q94S/R106L/R155S/R180L/R86G/S101N/S121W/S35A/S48A/V127L/V306I/V36M/Y140S/Y91M)

Sequence of H-2 K^d (P01887 21-119): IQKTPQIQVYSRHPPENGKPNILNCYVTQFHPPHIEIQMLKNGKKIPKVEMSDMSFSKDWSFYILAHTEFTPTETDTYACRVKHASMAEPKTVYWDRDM
Sequence of H-2 K^d (P01902 22-368): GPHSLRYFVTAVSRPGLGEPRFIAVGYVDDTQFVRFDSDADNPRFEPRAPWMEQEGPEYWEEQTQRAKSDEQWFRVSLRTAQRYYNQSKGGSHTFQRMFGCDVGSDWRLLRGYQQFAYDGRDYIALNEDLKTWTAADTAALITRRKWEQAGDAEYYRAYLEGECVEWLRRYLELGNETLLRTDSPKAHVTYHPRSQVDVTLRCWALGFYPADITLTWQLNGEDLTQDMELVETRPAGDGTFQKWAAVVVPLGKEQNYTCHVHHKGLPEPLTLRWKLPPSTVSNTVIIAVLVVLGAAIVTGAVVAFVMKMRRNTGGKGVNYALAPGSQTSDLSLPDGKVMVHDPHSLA
Sequence of H-2 D^b (P01887 21-119): as the sequence (P01887 21-119) above
Sequence of H-2 D^b (P01899 25-362): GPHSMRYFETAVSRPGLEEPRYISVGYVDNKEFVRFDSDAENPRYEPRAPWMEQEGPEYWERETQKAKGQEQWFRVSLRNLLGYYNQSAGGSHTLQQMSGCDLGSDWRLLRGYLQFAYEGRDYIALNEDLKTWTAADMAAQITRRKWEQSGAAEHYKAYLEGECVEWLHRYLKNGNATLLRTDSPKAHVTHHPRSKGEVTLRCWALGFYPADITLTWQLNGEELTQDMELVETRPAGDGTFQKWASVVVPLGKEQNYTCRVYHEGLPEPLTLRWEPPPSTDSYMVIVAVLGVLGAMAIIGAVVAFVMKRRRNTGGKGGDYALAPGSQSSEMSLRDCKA
Sequence of H-2 K^k (P01887 21-119): as the sequence (P01887 21-119) above
Sequence of H-2 K^k (P04223 22-369): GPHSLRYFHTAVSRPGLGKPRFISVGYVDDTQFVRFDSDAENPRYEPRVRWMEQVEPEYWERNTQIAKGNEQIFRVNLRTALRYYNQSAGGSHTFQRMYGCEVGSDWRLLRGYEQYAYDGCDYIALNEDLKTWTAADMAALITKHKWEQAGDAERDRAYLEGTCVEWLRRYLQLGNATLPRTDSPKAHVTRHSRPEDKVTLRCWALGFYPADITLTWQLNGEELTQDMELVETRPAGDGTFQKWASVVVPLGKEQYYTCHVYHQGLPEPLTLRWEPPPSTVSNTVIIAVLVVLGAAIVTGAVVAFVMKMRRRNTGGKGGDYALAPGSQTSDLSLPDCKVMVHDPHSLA
Sequence of H-2 D^d (P01900 whole entry, looked up): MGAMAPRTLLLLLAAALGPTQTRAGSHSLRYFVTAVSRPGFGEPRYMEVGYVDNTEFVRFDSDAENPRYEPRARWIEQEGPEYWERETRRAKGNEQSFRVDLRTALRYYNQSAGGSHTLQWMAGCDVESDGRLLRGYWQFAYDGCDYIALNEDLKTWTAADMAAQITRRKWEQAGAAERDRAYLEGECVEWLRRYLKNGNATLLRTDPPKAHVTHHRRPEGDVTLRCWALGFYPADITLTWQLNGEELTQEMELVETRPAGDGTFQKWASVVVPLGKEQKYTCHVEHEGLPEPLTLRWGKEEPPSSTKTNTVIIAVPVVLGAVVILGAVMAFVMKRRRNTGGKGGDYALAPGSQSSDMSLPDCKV

Sequence | Normalized average relative binding affinity(ARB) (HLA A*3001) | Normalized average relative binding affinity(ARB) (H-2 D^d) | Normalized average relative binding affinity(ARB) (H-2 K^k) | Normalized average relative binding affinity(ARB) (HLA B*5801) | Normalized average relative binding affinity(ARB) (HLA B*1503) | Normalized average relative binding affinity(ARB) (HLA B*5301) | Normalized average relative binding affinity(ARB) (H-2 D^b) | Normalized average relative binding affinity(ARB) (HLA B*5401) | Normalized average relative binding affinity(ARB) (H-2 K^d) | Normalized average relative binding affinity(ARB) (HLA B*0801) | Normalized average relative binding affinity(ARB) (HLA A*3201) | Normalized average relative binding affinity(ARB) (HLA B*5101) | Normalized average relative binding affinity(ARB) (HLA B*3501) | Normalized average relative binding affinity(ARB) (HLA A*6802) | Normalized average relative binding affinity(ARB) (HLA B*1501) | Normalized average relative binding affinity(ARB) (HLA B*5802)
XXXXPXXXX [3064.0093] | 0.53 | 0.023 | 0.072 | 0.19 | 0.46 | 0.14 | 0.038 | 0.51 | 0.094 | 0.011 | 0.16 | 0.50 | 0.37 | 0.16 | 0.89 | 0.075
XXXXXXRXX [3064.0135] | 0.085 | 0.013 | 0.21 | 0.075 | 0.21 | 0.25 | 0.15 | 0.13 | 0.11 | 0.50 | 0.10 | 0.57 | 0.16 | 0.11 | 0.22 | 0.21
XXXXMXXXX [3064.0091] | 0.33 | 0.19 | 0.24 | 0.092 | 0.064 | 0.38 | 0.086 | 0.72 | 0.60 | 0.078 | 0.31 | 0.45 | 0.98 | 0.78 | 0.41 | 0.42
XXXXXXLXX [3064.0130] | 0.21 | 0.036 | 0.10 | 1.0 | 0.24 | 0.32 | 0.26 | 0.13 | 0.10 | 0.60 | 0.86 | 0.65 | 0.21 | 0.56 | 1.0 | 0.014
XXXXWXXXX [3064.0099] | 0.16 | 0.098 | 1.0 | 0.30 | 0.44 | 0.074 | 0.013 | 0.14 | 0.21 | 0.023 | 0.65 | 0.19 | 0.29 | 0.26 | 0.49 | 1.0
XXXTXXXXX [3064.0077] | 0.44 | 0.66 | 0.19 | 0.27 | 0.41 | 0.25 | 0.58 | 0.61 | 0.21 | 0.52 | 0.31 | 0.77 | 0.54 | 0.20 | 0.39 | 0.74
